These results are taken from patent US12077503B2, “Substituted cyclic amides and their use as herbicides” (FMC CORPORATION, priority 2015, dated 2024).

Holding throughout (experiment): Test A postemergence
Common to all, as to format: in vivo

The subject of test [1] is Galium (catchweed bedstraw, Galium aparine). The note with it: Galium, post-emergence, 240 h; for pest or weed control at 125 g/ha: 125 g ai/ha; for pest or weed control at 125 g/ha / pest or weed control at 500 g/ha: postemergence; for pest or weed control at 500 g/ha: 500 g ai/ha, 0 is no effect, 100 is complete control, read-out: Galium plant response rating. In a few lines: (§1)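 Each rating is a visual injury score from 0 to 100 given about 10 d after treatment, judged against untreated controls kept alongside in the greenhouse. In loam soil–sand blend, seeds got a preemergence directed soil spray, while postemergence plants were 2 to 10 cm tall at spraying.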

Test [2] concerns wheat (Triticum aestivum). The note with it: Triticum aestivum, post-emergence, 240 h; for plant injury at 125 g/ha: 125 g ai/ha; for plant injury at 125 g/ha / plant injury at 500 g/ha: postemergence; for plant injury at 500 g/ha: 500 g ai/ha, 0 is no effect, 100 is complete control, read-out: Wheat plant response rating. In a few lines: as §1
Test [3] has as its system blackgrass (Alopecurus myosuroides). The note with it: Alopecurus myosuroides, post-emergence, 240 h; for pest or weed control at 125 g/ha: 125 g ai/ha; for pest or weed control at 125 g/ha / pest or weed control at 500 g/ha: postemergence; for pest or weed control at 500 g/ha: 500 g ai/ha, 0 is no effect, 100 is complete control, read-out: Blackgrass plant response rating. In a few lines:
as §1

Test [4] concerns corn (Zea mays). The note with it: Zea mays, post-emergence, 240 h; for plant injury at 125 g/ha / Corn plant response rating (crop injury, 0 = no effect, 100 = complete kill) at 125 g/ha: 125 g ai/ha; for plant injury at 125 g/ha / plant injury at 500 g/ha / Corn plant response rating (crop injury, 0 = no effect, 100 = complete kill) at 125 g/ha: postemergence; for plant injury at 125 g/ha: visual injury vs untreated controls after approx. 10 d, 0 = no effect, 100 = complete control, read-out: Corn plant response rating (0 to 100 scale); for plant injury at 500 g/ha: 500 g ai/ha, 0 is no effect, 100 is complete control, read-out: Corn plant response rating; for Corn plant response rating (crop injury, 0 = no effect, 100 = complete kill) at 125 g/ha: visual injury after approximately 10 d, 0 to 100 scale (0 no effect, 100 complete control). Put shortly: as §1

Test [5] deals with ragweed (common ragweed, Ambrosia elatior). The note with it: Ambrosia artemisiifolia, post-emergence, 240 h; for pest or weed control at 125 g/ha: 125 g ai/ha; for pest or weed control at 125 g/ha / pest or weed control at 500 g/ha: postemergence; for pest or weed control at 500 g/ha: 500 g ai/ha, 0 is no effect, 100 is complete control, read-out: Ragweed plant response rating. In a few lines: as §1

Test [6] concerns Kochia (Kochia scoparia). The note with it: Bassia scoparia, post-emergence, 240 h; for pest or weed control at 125 g/ha: 125 g ai/ha; for pest or weed control at 125 g/ha / pest or weed control at 500 g/ha: postemergence; for pest or weed control at 500 g/ha: 500 g ai/ha, 0 is no effect, 100 is complete control, read-out: Kochia plant response rating. In a few lines: as §1
The mark [7] stands for this setting: visual injury vs untreated controls after approx. 10 d, 0 = no effect, 100 = complete control, read-out: Galium plant response rating (0 to 100 scale).
Where [8] appears, read: visual injury vs untreated controls after approx. 10 d, 0 = no effect, 100 = complete control, read-out: Wheat plant response rating (0 to 100 scale).
[9] abbreviates: visual injury vs untreated controls after approx. 10 d, 0 = no effect, 100 = complete control, read-out: Blackgrass plant response rating (0 to 100 scale).
The mark [10] stands for this setting: visual injury vs untreated controls after approx. 10 d, 0 = no effect, 100 = complete control, read-out: Ragweed plant response rating (0 to 100 scale).
Setting [11] is: visual injury vs untreated controls after approx. 10 d, 0 = no effect, 100 = complete control, read-out: Kochia plant response rating (0 to 100 scale).
The mark [12] stands for this setting: visual injury after approximately 10 d, 0 to 100 scale (0 no effect, 100 complete control), read-out: Plant response rating, Galium.
Where [13] appears, read: visual injury after approximately 10 d, 0 to 100 scale (0 no effect, 100 complete control), read-out: Plant response rating, Wheat.
[14] abbreviates: visual injury after approximately 10 d, 0 to 100 scale (0 no effect, 100 complete control), read-out: Plant response rating, Blackgrass.
Setting [15] is: visual injury after approximately 10 d, 0 to 100 scale (0 no effect, 100 complete control), read-out: Plant response rating, Ragweed.
Where [16] appears, read: visual injury after approximately 10 d, 0 to 100 scale (0 no effect, 100 complete control), read-out: Plant response rating, Kochia.

Read-outs that look alike come from different tables or passages of the source.

Turning to `CN1C[C@H](c2cc(F)cc(C(F)(F)F)c2)[C@@H](C(=O)Nc2cccc(F)c2F)C1=O` [Compound 1214], the pest or weed control at 125 g/ha is 60% in test [1] (setting [7]), 80% in test [3] (setting [9]), 0% in test [5] (setting [10]) and 60% in test [6] (setting [11]). Further, the pest or weed control at 500 g/ha in test [1] (0 to 100 scale) was determined as 60%; in test [3] (0 to 100 scale), 80%; in test [5] (0 to 100 scale) it was 30%; in test [6] (0 to 100 scale), 80%. The plant injury at 125 g/ha in test [2] (setting [8]) was determined as 70%; in test [4], 80%. Further, the plant injury at 500 g/ha was found to be 80% in test [2] (0 to 100 scale) and 90% in test [4] (0 to 100 scale).
`CSc1ccccc1NC(=O)[C@H]1C(=S)NC[C@@H]1c1ccc(C)c(C)c1` [Compound 766]: the pest or weed control at 125 g/ha in test [1] (setting [12]), in test [3] (setting [14]), in test [5] (setting [15]) and in test [6] (setting [16]) was 0% in each case. In addition, the plant injury at 125 g/ha in test [2] (setting [13]) turned out to be 0%. The molecule further displayed a Corn plant response rating (crop injury, 0 = no effect, 100 = complete kill) at 125 g/ha in test [4] of 0%.
In the case of `CSc1ccccc1NC(=O)[C@H]1C(=O)N(C)C[C@@H]1c1cc(F)cc(F)c1` [Compound 738], the pest or weed control at 125 g/ha in test [1] (setting [12]) amounted to 50%; in test [3] (setting [14]), 0%; in test [5] (setting [15]) it was 0%; in test [6] (setting [16]), 20%. In addition, in test [2] (setting [13]), the plant injury at 125 g/ha was 0%. Moreover, the Corn plant response rating (crop injury, 0 = no effect, 100 = complete kill) at 125 g/ha in test [4] is 20%.
For the molecule `CSc1ccccc1NC(=O)[C@H]1C(=O)NC[C@@H]1c1ccc(F)c(C#N)c1` [Compound 1201], the pest or weed control at 125 g/ha in test [1] (setting [7]) stood at 30%; in test [3] (setting [9]) it was 0%; in test [5] (setting [10]), 0%; in test [6] (setting [11]), 40%. The pest or weed control at 500 g/ha is 50% in test [1] (0 to 100 scale), 0% in test [3] (0 to 100 scale), 30% in test [5] (0 to 100 scale) and 70% in test [6] (0 to 100 scale). In addition, the plant injury at 125 g/ha in test [2] (setting [8]) and in test [4] was 0% throughout. Moreover, the plant injury at 500 g/ha in test [2] (0 to 100 scale) and in test [4] (0 to 100 scale) was 0% throughout.
Regarding `Cc1cc(F)cc([C@H]2CN(C)C(=O)[C@@H]2C(=O)Nc2ccc(F)c(F)c2F)c1` [Compound 801], the pest or weed control at 125 g/ha in test [1] (setting [12]) worked out at 60%; in test [3] (setting [14]) it was 60%; in test [5] (setting [15]), 50%; in test [6] (setting [16]), 40%. The pest or weed control at 31 g/ha in test [1] (Postemergence, 31 g ai/ha, visual injury after approx. 10 d, 0 to 100 scale, 0 no effect, 100 complete control, read-out: Plant response rating, Galium) came out at 30%; in test [3] (Postemergence, 31 g ai/ha, visual injury after approx. 10 d, 0 to 100 scale, 0 no effect, 100 complete control, read-out: Plant response rating, Blackgrass), 20%; in test [5] (Postemergence, 31 g ai/ha, visual injury after approx. 10 d, 0 to 100 scale, 0 no effect, 100 complete control, read-out: Plant response rating, Ragweed), 0%; in test [6] (Postemergence, 31 g ai/ha, visual injury after approx. 10 d, 0 to 100 scale, 0 no effect, 100 complete control, read-out: Plant response rating, Kochia), 20%. Further, the plant injury at 31 g/ha in test [2] (Postemergence, 31 g ai/ha, visual injury after approx. 10 d, 0 to 100 scale, 0 no effect, 100 complete control, read-out: Plant response rating, Wheat) was 0%. Moreover, the Corn plant response rating (crop injury, 0 = no effect, 100 = complete kill) at 125 g/ha in test [4] came to 60%. Further, in test [4] (Postemergence, 31 g ai/ha, visual injury after approx. 10 d, 0 to 100 scale, 0 no effect, 100 complete control), the Corn plant response rating (crop injury, 0 = no effect, 100 = complete kill) at 31 g/ha turned out to be 20%.
In the case of `N#Cc1cc([C@H]2CNC(=O)[C@]2(O)C(=O)Nc2ccccc2F)ccc1F` [Compound 1200], the pest or weed control at 125 g/ha in test [1] (setting [7]), in test [3] (setting [9]), in test [5] (setting [10]) and in test [6] (setting [11]) was 0% in each case. In addition, the pest or weed control at 500 g/ha in test [1] (0 to 100 scale), in test [3] (0 to 100 scale), in test [5] (0 to 100 scale) and in test [6] (0 to 100 scale) was 0% each time. Moreover, the plant injury at 125 g/ha in test [2] (setting [8]) and in test [4] was 0% throughout. For the same molecule, the plant injury at 500 g/ha in test [2] (0 to 100 scale) and in test [4] (0 to 100 scale) was 0% in each case.
Consider `Cc1cc([C@H]2CNC(=O)[C@@H]2C(=O)Nc2ccccc2C(F)(F)F)ccc1Cl` [Compound 1245], for which the pest or weed control at 125 g/ha is 30% in test [1] (setting [7]), 30% in test [3] (setting [9]), 0% in test [5] (setting [10]) and 0% in test [6] (setting [11]). The pest or weed control at 500 g/ha in test [1] (0 to 100 scale) came to 50%; in test [3] (0 to 100 scale), 60%; in test [5] (0 to 100 scale), 50%; in test [6] (0 to 100 scale) it was 40%. The plant injury at 125 g/ha in test [2] (setting [8]) and in test [4] was 0% throughout. Moreover, the plant injury at 500 g/ha in test [4] (0 to 100 scale) was found to be 0%.
For `Cc1cc([C@H]2CNC(=O)[C@@H]2C(=O)Nc2ccccc2F)ccc1F` [Compound 717], the pest or weed control at 125 g/ha in test [1] (setting [12]) was found to be 40%; in test [3] (setting [14]) it was 0%; in test [5] (setting [15]), 0%; in test [6] (setting [16]) it was 20%. Also, in test [2] (setting [13]), the plant injury at 125 g/ha was 0%. This molecule also registered a Corn plant response rating (crop injury, 0 = no effect, 100 = complete kill) at 125 g/ha in test [4] of 0%.
